The record followed here is patent publication US9879043B1, “Synthesis of non-natural cofactor analogs of S-adenosyl-L-methionine using methionine adenosyltransferase” (University of Kentucky Research Foundation, priority 2013, dated 2018).

Format in all cases: biochemical
In assay [1] the target is human MAT I catalytic subunit alpha (hMAT1A) (Homo sapiens, UniProt Q00266). In words: MAT assay, turnover of S/Se-Met analogs to S(Se)AM analogs (RP-HPLC end point). As to conditions: 2 mM Met analog, 1 mM ATP, 5 μM MAT, pH 8, 4 h, 37° C.; average of two assays.
Assay [2] has as its target human MAT II catalytic alpha and regulatory beta subunit (hMAT2) (Homo sapiens, UniProt P31153). The description is as above. As to conditions: 2 mM Met analog, 1 mM ATP, 5 μM MAT, pH 8, 4 h, 37° C.; average of two assays.
The target in assay [3] is human MAT II catalytic alpha subunit alone (hMAT2A) (Homo sapiens, UniProt P31153). Described as above. As to conditions: 2 mM Met analog, 1 mM ATP, 5 μM MAT, pH 8, 4 h, 37° C., average of two assays.
Assay [4] concerns the target T1, Methanocaldococcus jannaschii MAT (mMAT) (Methanocaldococcus jannaschii, UniProt Q58605).
T1 sequence (Q58605 1-406): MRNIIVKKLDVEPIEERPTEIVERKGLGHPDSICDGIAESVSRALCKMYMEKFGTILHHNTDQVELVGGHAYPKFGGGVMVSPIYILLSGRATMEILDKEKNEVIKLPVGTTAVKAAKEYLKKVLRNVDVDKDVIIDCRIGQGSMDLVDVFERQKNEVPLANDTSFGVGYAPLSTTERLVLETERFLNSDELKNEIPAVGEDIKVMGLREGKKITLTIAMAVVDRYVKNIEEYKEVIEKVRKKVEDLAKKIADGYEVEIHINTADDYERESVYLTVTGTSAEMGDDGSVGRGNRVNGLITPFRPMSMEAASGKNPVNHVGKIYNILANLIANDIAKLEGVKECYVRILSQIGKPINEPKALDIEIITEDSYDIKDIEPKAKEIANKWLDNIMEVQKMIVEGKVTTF
As to conditions: 2 mM Met analog, 1 mM ATP, 5 μM MAT, pH 8, 4 h, 65° C.; average of two assays. As to the method:
Standard uniform assay conditions (2 mM Met analog, 1 mM ATP, 5 μM MAT, 25 mM Tris, 5 mM MgCl2, 50 mM KCl, pH 8, 4 h) were adopted to facilitate this broad assessment. For the thermophilic counterpart (mMAT), reactions were conducted at 65° C., while all other reactions were incubated at 37° C. Production of SAM analogs was determined by an RP-HPLC end point assay to afford complete analysis of the desired SAM analog and/or any corresponding degradation products known to directly derive from the desired SAM analog intermediate.
To monitor MAT reactions, analytical RP HPLC employed a Luna C18 column (5 μm, 4.6 mm×250 mm; Phenomenex, Torrance, Calif., USA) [gradient of 10% B to 40% B over 15 min, 40% B to 75% B over 5 min (A=10 mM NaH2PO4, 5 mM octane sulfonic acid, pH was adjusted to 3.5 using phosphoric acid; B=acetonitrile) flow rate=1 mL min^−1; A254].
The sMAT and mMAT reactions were conducted at 65° C. while hMATs and eMAT were incubated at 37° C. Reactions were quenched by adding an equal volume of methanol followed by centrifugation (10,000×g for 15 min) to remove the precipitated protein and product formation for each reaction was subsequently analyzed by RP-HPLC using Method D (FIG. 15, first column). For each reaction, percent yield was based upon the integration of species at 254 nm and calculated by dividing the integrated area of product and/or decomposed product by the sum of integrated area of product and/or decomposed product and the remaining substrate. The assays were repeated twice under identical conditions, and Table 2 (and FIG. 5) represents an average value of two assays. The inclusion of adenine and 5′-R-thio-5′-adenosine in these calculations is based upon the established SAM and ATP chemical decomposition pathways which indicate adenine and 5′-R-thio-5′-adenosine to only derive from SAM (not ATP). All putative products were subsequently confirmed by high resolution electrospray ionization (ESI) mass spectra with positive (+) and/or negative (−) mode.

The target of assay [5] is T2, Sulfolobus solfataricus MAT (sMAT) (Saccharolobus solfataricus, UniProt Q980S9).
T2 sequence (Q980S9 1-404): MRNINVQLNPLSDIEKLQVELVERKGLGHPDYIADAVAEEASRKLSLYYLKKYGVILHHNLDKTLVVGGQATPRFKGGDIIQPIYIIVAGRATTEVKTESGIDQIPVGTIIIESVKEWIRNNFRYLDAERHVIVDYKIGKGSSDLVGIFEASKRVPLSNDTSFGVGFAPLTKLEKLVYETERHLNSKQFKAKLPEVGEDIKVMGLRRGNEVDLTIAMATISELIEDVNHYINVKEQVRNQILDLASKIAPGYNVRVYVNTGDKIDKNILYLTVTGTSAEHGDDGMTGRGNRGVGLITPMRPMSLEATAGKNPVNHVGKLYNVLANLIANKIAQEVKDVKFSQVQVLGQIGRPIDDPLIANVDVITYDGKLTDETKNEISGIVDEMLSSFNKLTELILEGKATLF
The assay is described as follows: Kinetic measurements of sMAT reactions. The method, then:
Kinetic Measurements of sMAT Reactions: Pseudo first-order kinetics was assessed in triplicate under saturating ATP (2.5 mM) and variable L-methionine/L-ethionine (0.007, 0.013, 0.033, 0.066, 0.133, 0.333, 0.66, 1.33 mM) and saturating L-methionine/L-ethionine (2.5 mM) and variable ATP (0.013, 0.033, 0.066, 0.133, 0.333, 0.66, 1.33 mM) concentrations. Reactions were performed in buffer containing 25 mM Tris pH 8.0, 40 mM KCl and 5 mM MgCl2, and 0.5 μg purified sMAT was added and incubated at 37° C. or 65° C. in a final volume of 20 μL. Reaction products were analyzed using RP-HPLC method above and product quantification was carried out using standard curve generated by commercial SAM. The kinetic curves were fit to the Michaelis-Menton equation using Prism software.

For `CCSCC[C@H](N)C(=O)O` [compound 3, (2S)-2-amino-4-(ethylsulfanyl)butanoic acid], the “Percentage Turn-over hMAT1A” value in assay [1] was found to be 75%. The “Percentage Turn-over hMAT2” value in assay [2] stood at 88%. Also, the “Percentage Turn-over hMAT2A” value is 90% in assay [3] and ~100% in assay [3] (listed as ethionine). Moreover, the “Percentage Turn-over mMAT” value in assay [4] is listed as 94%. Also, the kcat entry in assay [5] (37° C. or 65° C., L-methionine versus L-ethionine) was “similar”. The Km result in assay [5] (compared to native substrate L-methionine) is on record as “higher Km values”.
